Our source for the Kd values is paper PMC8759985 (Computational and Structural Biotechnology Journal, 2021).

The target of the assay is T1, TRMT2A RRM (Homo sapiens, UniProt Q8IZ69).
T1 sequence (Q8IZ69 69-147): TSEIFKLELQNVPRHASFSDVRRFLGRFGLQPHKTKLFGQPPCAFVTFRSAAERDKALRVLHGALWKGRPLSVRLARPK
As to the kind of experiment: SPR. Format: binding.

As usually defined, the Kd is a measure of binding affinity in units of concentration. Molecule `NCCCNCCCCNCCCN` [spermine] had a Kd of 1300 ± 270 nM.
